Consider 20 molecules from PubChem BioAssay AID330 (DTP/NCI, 2004).

Several values for one entry are separate records, joined by “and”; a condition that tells them apart may be missing. Equal values may be shown once. Toxic doses and inconclusive results are not listed.

This assay deals with P388 leukemia ip, CD2F1 mice, survival T/C. Description: NCI In Vivo Anticancer Drug Screen. Data for tumor model P388 Leukemia (intraperitoneal) in CD2F1 (CDF1) mice. To be noted: endpoint: median survival time, higher = longer survival. Put shortly:
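Mice carrying the transplanted tumor received test compound or vehicle. Survival was recorded in each group, and the value is the treated-group measurement divided by that of the vehicle-treated control group.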

The mark [1] stands for this setting: dose: 100.0 mg/kg/injection, schedule: Q04DX003 (ip), vehicle: saline with Tween-80.
Setting [2] is: dose: 200.0 mg/kg/injection, schedule: Q04DX003 (ip), vehicle: saline with Tween-80.
[3] abbreviates: dose: 400.0 mg/kg/injection, schedule: Q04DX003 (ip), vehicle: saline with Tween-80.
[4] abbreviates: dose: 100.0 mg/kg/injection, schedule: Q04DX002 (ip), vehicle: saline with Tween-80.
Setting [5] is: dose: 100.0 mg/kg/injection, schedule: Q01DX009 (ip), vehicle: Klucel (hydroxypropylcellulose) (HPC).
[6] abbreviates: dose: 200.0 mg/kg/injection, schedule: Q01DX009 (ip), vehicle: Klucel (hydroxypropylcellulose) (HPC).
The mark [7] stands for this setting: dose: 50.0 mg/kg/injection, schedule: Q01DX009 (ip), vehicle: Klucel (hydroxypropylcellulose) (HPC).

`COC(=O)C1C2CC3c4[nH]c5cc(OC)c(Br)cc5c4CCN3CC2CC(OC(=O)c2cc(OC)c(OC)c(OC)c2)C1OC` (stereo not drawn): the T/C (dose: 3.75 mg/kg/injection, schedule: Q01DX005 (ip), vehicle: Klucel (hydroxypropylcellulose) (HPC)) is 104 % of control; the T/C (dose: 7.5 mg/kg/injection, schedule: Q01DX005 (ip), vehicle: Klucel (hydroxypropylcellulose) (HPC)) is 94 % of control; the T/C (dose: 15.0 mg/kg/injection, schedule: Q01DX005 (ip), vehicle: Klucel (hydroxypropylcellulose) (HPC)) is 104 % of control; the T/C (dose: 30.0 mg/kg/injection, schedule: Q01DX005 (ip), vehicle: Klucel (hydroxypropylcellulose) (HPC)) is 108 % of control.

Turning to `O=C(c1ccccc1)C(c1ccccc1)n1nc2c(c1-c1ccccc1)CCC2` (stereo not drawn), the T/C reads like this: (dose: 12.5 mg/kg/injection, schedule: Q01DX001 (ip), vehicle: Klucel (hydroxypropylcellulose) (HPC)) 100 % of control; (dose: 25.0 mg/kg/injection, schedule: Q01DX001 (ip), vehicle: Klucel (hydroxypropylcellulose) (HPC)) 95 % of control; (dose: 50.0 mg/kg/injection, schedule: Q01DX001 (ip), vehicle: Klucel (hydroxypropylcellulose) (HPC)) 98 % of control; (dose: 100.0 mg/kg/injection, schedule: Q01DX001 (ip), vehicle: Klucel (hydroxypropylcellulose) (HPC)) 100 % of control.

Regarding `CC(C)COC1CC(C)(C)c2c(-c3ccccc3)nn(-c3ccccc3)c2O1` (stereo not drawn), the T/C runs as follows: (dose: 12.5 mg/kg/injection, schedule: Q01DX009 (ip), vehicle: saline with Tween-80) 93 % of control; (dose: 25.0 mg/kg/injection, schedule: Q01DX009 (ip), vehicle: saline with Tween-80) 93 % of control; (dose: 50.0 mg/kg/injection, schedule: Q01DX009 (ip), vehicle: saline with Tween-80) 88 % of control and 93 % of control.

Take `CC(O)CC1=Nc2c(nc(N)[nH]c2=O)N(C)C1` (stereo not drawn): the T/C was 98 % of control under setting [1], 97 % of control under setting [2] and 113 % of control under setting [3].

With `C[C@]12CCC[C@@H](O)[C@H]1O2`, the T/C was 104 % of control (dose: 100.0 mg/kg/injection, schedule: Q04DX003 (ip), vehicle: saline); 103 % of control (dose: 200.0 mg/kg/injection, schedule: Q04DX003 (ip), vehicle: saline); 109 % of control (dose: 400.0 mg/kg/injection, schedule: Q04DX003 (ip), vehicle: saline).

As to `CNCCC(Oc1ccc(C(F)(F)F)cc1)c1ccccc1` (stereo not drawn), the T/C was 106 % of control (dose: 25.0 mg/kg/injection, schedule: Q04DX002 (ip), vehicle: saline with Tween-80); 106 % of control (dose: 50.0 mg/kg/injection, schedule: Q04DX002 (ip), vehicle: saline with Tween-80); 106 % of control under setting [4].

Regarding `NOCc1ccccc1`, the T/C is 93 % of control under setting [5] and 86 % of control under setting [6].

As for `COc1nc(NC2OC(COC(C)=O)C(OC(C)=O)C(OC(C)=O)C2OC(C)=O)c(N=CC=Nc2c(NC3OC(COC(C)=O)C(OC(C)=O)C(OC(C)=O)C3OC(C)=O)nc(OC)[nH]c2=O)c(=O)[nH]1` (stereo not drawn), the T/C is, setting by setting: (dose: 60.0 mg/kg/injection, schedule: Q01DX005 (ip), vehicle: saline with Tween-80) 89 % of control; (dose: 120.0 mg/kg/injection, schedule: Q01DX005 (ip), vehicle: saline with Tween-80) 90 % of control; (dose: 240.0 mg/kg/injection, schedule: Q01DX005 (ip), vehicle: saline with Tween-80) 95 % of control.

Regarding `O=C(NC(Cc1ccc(Cl)cc1)C(=O)O)c1ccccc1` (stereo not drawn), the T/C was 98 % of control (dose: 25.0 mg/kg/injection, schedule: Q01DX009 (ip), vehicle: other); 97 % of control (dose: 50.0 mg/kg/injection, schedule: Q01DX009 (ip), vehicle: other); 106 % of control (dose: 100.0 mg/kg/injection, schedule: Q01DX009 (ip), vehicle: other).

`CCC(=O)Nc1nnc(SCCCCCCCCCCCCSc2nnc(NC(=O)CC)s2)s1`: the T/C is, setting by setting: (dose: 50.0 mg/kg/injection, schedule: Q01DX005 (ip), vehicle: Klucel (hydroxypropylcellulose) (HPC)) 96 % of control; (dose: 100.0 mg/kg/injection, schedule: Q01DX005 (ip), vehicle: Klucel (hydroxypropylcellulose) (HPC)) 88 % of control; (dose: 200.0 mg/kg/injection, schedule: Q01DX005 (ip), vehicle: Klucel (hydroxypropylcellulose) (HPC)) 87 % of control.

Turning to `COC1=CC(=O)C(C(C)=O)=C(C#N)C1=O`, the T/C is 100 % of control under setting [4]; 100 % of control (dose: 200.0 mg/kg/injection, schedule: Q04DX002 (ip), vehicle: saline with Tween-80); 90 % of control (dose: 400.0 mg/kg/injection, schedule: Q04DX002 (ip), vehicle: saline with Tween-80).

For the molecule `CCN(CC)Cc1cc(N=Nc2cccc3ccccc23)c2ccccc2c1O`, the T/C by setting is: under setting [7], 102 % of control; under setting [5], 108 % of control; under setting [6], 100 % of control.

As to `Fc1cccc(F)n1`, the T/C runs as follows: (dose: 25.0 mg/kg/injection, schedule: Q04DX003 (ip), vehicle: water) 91 % of control; (dose: 50.0 mg/kg/injection, schedule: Q04DX003 (ip), vehicle: water) 103 % of control; (dose: 100.0 mg/kg/injection, schedule: Q04DX003 (ip), vehicle: water) 100 % of control; (dose: 200.0 mg/kg/injection, schedule: Q04DX003 (ip), vehicle: water) 100 % of control; (dose: 400.0 mg/kg/injection, schedule: Q04DX003 (ip), vehicle: water) 104 % of control.

For the molecule `CCN(CC)C1CC(O[C@H]2C[C@](O)(C(=O)CO)Cc3c(O)c4c(c(O)c32)C(=O)c2c(OC)cccc2C4=O)OC(C)C1O` (stereo partly drawn), the T/C (dose: 1.56 mg/kg/injection, schedule: Q01DX009 (ip), vehicle: water) is 153 % of control; the T/C (dose: 3.13 mg/kg/injection, schedule: Q01DX009 (ip), vehicle: water) is 165 % of control and 178 % of control.

Take `O=C1OC2=C(CCCCC2)C(N2CCCCC2)C12SCCCS2` (stereo not drawn): the T/C was 100 % of control and 96 % of control (dose: 66.0 mg/kg/injection, schedule: Q04DX003 (ip), vehicle: saline with Tween-80); 98 % of control and 91 % of control under setting [1]; 110 % of control and 93 % of control (dose: 150.0 mg/kg/injection, schedule: Q04DX003 (ip), vehicle: saline with Tween-80); 104 % of control under setting [2]; 93 % of control under setting [3].

Regarding `C(CCOCC1CO1)COCC1CO1` (stereo not drawn), the T/C by setting is: (dose: 25.0 mg/kg/injection, schedule: Q01DX009 (ip), vehicle: Klucel (hydroxypropylcellulose) (HPC)) 108 % of control and 111 % of control; under setting [7], 110 % of control; under setting [5], 117 % of control.

Regarding `Nc1ccc(/C=C/c2ccc(N)cc2S(=O)(=O)O)c(S(=O)(=O)O)c1`, the T/C reads like this: (dose: 25.0 mg/kg/injection, schedule: Q01DX009 (ip), vehicle: suspension in saline) 99 % of control; (dose: 50.0 mg/kg/injection, schedule: Q01DX009 (ip), vehicle: saline) 104 % of control; (dose: 50.0 mg/kg/injection, schedule: Q01DX009 (ip), vehicle: suspension in saline) 95 % of control; (dose: 100.0 mg/kg/injection, schedule: Q01DX009 (ip), vehicle: saline) 104 % of control; (dose: 100.0 mg/kg/injection, schedule: Q01DX009 (ip), vehicle: suspension in saline) 99 % of control; (dose: 200.0 mg/kg/injection, schedule: Q01DX009 (ip), vehicle: saline) 108 % of control. Moreover, the T/C (dose: 200.0 mg/kg/injection, schedule: Q01DX009 (ip), vehicle: suspension in saline) is 107 % of control and the T/C (dose: 400.0 mg/kg/injection, schedule: Q01DX009 (ip), vehicle: saline) was 110 % of control.

For the molecule `CCN(CC)CCCC(C)N=C(Nc1ccccc1)c1ccc(Cl)cc1` (stereo not drawn), the T/C is 104 % of control (dose: 50.0 mg/kg/injection, schedule: Q01DX005 (ip), vehicle: saline) and 102 % of control (dose: 100.0 mg/kg/injection, schedule: Q01DX005 (ip), vehicle: saline).

`c1ccc(C2=NC(=c3ccc(=C4N=C(c5ccccc5)C(c5ccccc5)=N4)cc3)N=C2c2ccccc2)cc1`: the T/C was 90 % of control (dose: 60.0 mg/kg/injection, schedule: Q01DX005 (ip), vehicle: Klucel (hydroxypropylcellulose) (HPC)); 90 % of control (dose: 120.0 mg/kg/injection, schedule: Q01DX005 (ip), vehicle: Klucel (hydroxypropylcellulose) (HPC)); 100 % of control (dose: 240.0 mg/kg/injection, schedule: Q01DX005 (ip), vehicle: Klucel (hydroxypropylcellulose) (HPC)).

For `C=Cn1ccnc1C.C=Cn1ccnc1C.CC(=O)CC(C)=O.CC(=O)CC(C)=O.[Co]`, the T/C (dose: 12.5 mg/kg/injection, schedule: Q04DX003 (ip), vehicle: saline) is 117 % of control and 95 % of control; the T/C (dose: 25.0 mg/kg/injection, schedule: Q04DX003 (ip), vehicle: saline) is 102 % of control and 117 % of control; the T/C (dose: 50.0 mg/kg/injection, schedule: Q04DX003 (ip), vehicle: saline) was 105 % of control and 123 % of control.
